We go through two compounds from US20080200489A1, “Combination of Organic Compounds” (priority 2005, published 2008).

One series concerns Bcr-AblT315I. The series can be described thus: Western analyses of Bcr-Abl levels, BaF3/Bcr-AblT315I cells. The format is cell-based, mouse.
A further series relates to BaF3/Bcr-AblE255K cells. The series can be described thus: Apoptosis of BaF3 cells expressing Bcr-AblE255K. In kind it is cell-based, mouse. The source says: (§1) Cell lines and cell culture: Bcr-Abl-expressing, CML LAMA-84 and K562 cells are obtained from American Tissue Culture Collection (Manassas, Va.) and maintained in culture in RPMI medium containing 10% fetal bovine serum and passaged twice a week. […] Following these treatments, cells or cell pellets are washed free of the drug(s) prior to the performance of the studies.
(§2) Site-directed mutagenesis and nucleofection: Three p210 Bcr-Abl constructs are used in the current studies. The p210 Bcr-Abl WT and p210 Bcr-Abl (T315I) constructs are generated. […] For nucleofection of the p210 Bcr-Abl constructs into BaF3 cells, 5 million BaF3 cells in 100 μL Nucleofector solution V (Amaxa, Gaithersburg, Md.) are mixed with 5 μg p210 Bcr-Abl WT, p210 Bcr-Abl (T315I), or p210 Bcr-Abl (E255K) in a cuvette and nucleofected using program G-16. […] Stably expressing cells are then further selected by removal of IL-3. After confirmation of Bcr-Abl expression by immunoblot analysis, cells are used for the studies described herein.
(§3) Apoptosis assessment by annexin V staining: Untreated and drug-treated cells are stained with annexin V and PI, and the percentage of apoptotic cells is determined by flow cytometry.

The next series deals with K562 cells. The series can be described thus: Apoptosis assessment by annexin V staining, K562 cells. Particulars: for apoptosis of K562 cells: agent alone. The format is cell-based, human. Here is the method:
(§4) Cell lines and cell culture: Bcr-Abl-expressing, CML LAMA-84 and K562 cells are obtained from American Tissue Culture Collection (Manassas, Va.) and maintained in culture in RPMI medium containing 10% fetal bovine serum and passaged twice a week. Mouse pro-B BaF3 cells are cultured in complete RPMI-1640 media supplemented with 10% WEHI medium as the source of IL-3. For the studies described herein, logarithmically growing cells are exposed to the designated concentrations of Compound (II) and/or Compound (V). Following these treatments, cells or cell pellets are washed free of the drug(s) prior to the performance of the studies. Apoptosis assessment by annexin V staining: Untreated and drug-treated cells are stained with annexin V and PI, and the percentage of apoptotic cells is determined by flow cytometry. Analysis of synergism between Compound (II) and Compound (V) in inducing apoptosis of K562 and LAMA-84 cells is performed by Median Dose-Effect analysis of Chou and Talalay using the commercially-available software (Calcusyn; Biosoft, Ferguson, Mo.).

In series [1] the test system is Bcr-Abl. The series can be described thus: Western blot analyses of total cell lysates of primary CML cells. In kind it is cell-based, human. Particulars: sample 9; 1000 nM alone. Here is the method: Additionally, NBMCs are harvested and purified. Informed consents are signed by all patients to allow use of their cells for these experiments, as part of a clinical protocol approved by the University of South Florida Institutional Review Board (IRB).
(§5) Western analyses of proteins: Western analyses are performed using specific antisera or monoclonal antibodies according to previously reported protocols, and the horizontal scanning densitometry is performed on Western blots.

The next series concerns BaF3/Bcr-AblT315I cells. The series can be described thus: Apoptosis of BaF3 cells expressing Bcr-AblT315I. The format is cell-based, mouse.
For another series, the system named is NBMCs. The series can be described thus: Loss of survival of NBMCs. The format is cell-based. Particulars: for loss of survival of NBMCs: 48 hours, mean of 2 samples. The source says:
Primary CML-BC cells and NBMCs: Leukemia cells from the peripheral blood and/or bone marrow of 10 patients who had met the clinical criteria of imatinib-resistant Ph chromosome-positive CML-BC (Imatinib-resistant Philadelphia chromosome-positive chromic myeloid leukaemia-blast crisis) are harvested and purified. Additionally, NBMCs are harvested and purified. Informed consents are signed by all patients to allow use of their cells for these experiments, as part of a clinical protocol approved by the University of South Florida Institutional Review Board (IRB).
Assessment of percentage of non-viable cells: Cells are stained with trypan blue (Sigma, St Louis, Mo.).

Series [2] has as its system primary, imatinib-resistant CML cells. The series can be described thus: Loss of viability / apoptosis of primary imatinib-resistant CML-BC cells. The format is cell-based, human. Particulars: for sensitivity of sample 7: Compound (II) at lower concentrations; for apoptosis of cells: sample no. 9 (Bcr-AblT315I). Here is the method: Primary CML-BC cells and NBMCs: […] Additionally, NBMCs are harvested and purified. Informed consents are signed by all patients to allow use of their cells for these experiments, as part of a clinical protocol approved by the University of South Florida Institutional Review Board (IRB). Sequencing of Bcr-Abl in CML-BC cells: […] Total RNA (5 μg) is reverse transcribed with a first-strand cDNA synthesis kit (Invitrogen). Reverse transcribed cDNAs are used in polymerase chain reaction (PCR) amplifications to amplify a fragment of Bcr-Abl that included the Bcr junction region and the c-Abl kinase region. The amplified sequences are agarose gel-purified and cloned into pCR4-TOPO plasmid. The resulting plasmids are transformed into Escherichia coli Mach1 cells (Invitrogen) overnight at 37° C. Ten colonies for each sample are checked by colony PCR and subcultured for plasmid isolation. Isolated plasmids are sequence verified with T3 and T7 primers for c-Abl kinase domain mutations. Assessment of percentage of non-viable cells: Cells are stained with trypan blue (Sigma, St Louis, Mo.). […] Apoptosis assessment by annexin V staining: Untreated and drug-treated cells are stained with annexin V and PI, and the percentage of apoptotic cells is determined by flow cytometry. Analysis of synergism between Compound (II) and Compound (V) in inducing apoptosis of K562 and LAMA-84 cells is performed by Median Dose-Effect analysis of Chou and Talalay using the commercially-available software (Calcusyn; Biosoft, Ferguson, Mo.).

The subject of another series is Bcr-AblE255K. The series can be described thus: Western analyses of Bcr-Abl levels, BaF3/Bcr-AblE255K cells. In kind it is cell-based, mouse.
Series [3] has as its system Bcr-Abl. The series can be described thus: Western/immunoblot analyses of Bcr-Abl and downstream signaling proteins, LAMA-84 cells. In kind it is cell-based, human. Particulars: agent alone. Here is the method: as §1, §5
Immunoprecipitation of Bcr-Abl and immunoblot analyses: Following the designated drug treatments, cells are lysed in lysis buffer (20 mM Tris [pH 8], […] sodium chloride, 1% NP40, 0.1 M sodium fluoride, 1 mM PMSF, 1 mM sodium orthovanadate, 2.5 μg/mL leupeptin, 5 μg/mL aprotinin) for 30 minutes on ice, and the nuclear and cellular debris is cleared by centrifugation. Cell lysates (200 μg) are incubated with the Abl-specific monoclonal antibody for 1 hour at 4° C. To this, washed Protein G agarose beads are added and incubated overnight at 4° C. The immunoprecipitates are washed 3 times in the lysis buffer, and proteins are eluted with the SDS sample loading buffer prior to the immunoblot analyses with specific antibodies against anti-Abl or antiphosphotyrosine antibody.

The next series concerns BaF3/Bcr-Abl cells. The series can be described thus: Apoptosis of BaF3 cells expressing unmutated Bcr-Abl. The format is cell-based, mouse. Particulars: agent alone.
From the text: as §1, §2, §3

In series [4] the test system is Bcr-Abl. The series can be described thus: Western analyses of Bcr-Abl levels, BaF3/Bcr-Abl cells. The format is cell-based, mouse.
The next series has as its system LAMA-84 cells. The series can be described thus: Apoptosis assessment by annexin V staining, LAMA-84 cells. In kind it is cell-based, human. Particulars: for apoptosis of LAMA-84 cells: agent alone. Here is the method: as §4
Where [5] appears, read: any of the levels tested, alone.

As for `Cc1cn(-c2cc(NC(=O)c3ccc(C)c(Nc4nccc(-c5cccnc5)n4)c3)cc(C(F)(F)F)c2)cn1` [Compound (II), 4-methyl-3-[[4-(3-pyridinyl)-2-pyrimidinyl]amino]-N-[5-(4-methyl-1H-imidazol-1-yl)-3-(trifluoromethyl)phenyl]benzamide], the “levels of p-CrkL” value is listed as “did not affect” with Bcr-AblT315I (agent alone), “did not affect” in the series on Bcr-AblE255K (agent alone), “inhibited” in the series on Bcr-Abl [3] and “did not affect” with Bcr-Abl [4] (agent alone). The “levels of Bcr-Abl” value in the series with Bcr-AblT315I (setting [5]) is “did not lower”; in the series with Bcr-AblE255K (setting [5]) it was “did not lower”; in the series with Bcr-Abl [3], “without affecting”; with Bcr-Abl [4] (setting [5]), “did not lower”. Further, the “apoptosis of BaF3/Bcr-AblE255K cells” value with BaF3/Bcr-AblE255K cells (100 nM) is “ineffective”; with BaF3/Bcr-AblE255K cells (200 nM), 26.0%; with BaF3/Bcr-AblE255K cells (500 nM) it was 43.0%. For the same compound, the “potency in inducing apoptosis relative to imatinib” value in the series on K562 cells (K562 cells) and in the series with LAMA-84 cells (LAMA-84 cells) was “approximately 10 fold” in each case. Moreover, the “apoptosis of K562 cells” value in the series with K562 cells was “dose-dependent manner”. Also, in the series with Bcr-Abl [1], the “levels of Bcr-Abl, p-CrkL, and p-STAT5” value was “little effect”. In the series with BaF3/Bcr-AblT315I cells (levels as high as 2,000 nM), the “apoptosis of BaF3/Bcr-AblT315I cells” value was “resistant”. Besides, the “effect against NBMCs” value in the series on NBMCs (up to 1.0 μM) is on record as “no effect”. Also, in [2], the “sensitivity of sample 7” value is given as “relatively resistant”. Further, the apoptosis of cells entry in series [2] (2.0 μM) is “ineffective”. Also, the “loss of cell viability” value is recorded as “dose dependent” in series [2] (samples 1 to 7, agent alone); “did not augment” in series [2] (samples 8, 9, and 10 with Bcr-AblT315I mutation, Compound (II) alone). In addition, in the series with Bcr-Abl [3], the “expressions of c-Myc and Bcl-xL” value is “lowered”. In addition, in the series on Bcr-Abl [3], the “levels of p-AKT” value is recorded as “inhibited”. Moreover, in the series on Bcr-Abl [3], the “levels of p-STAT5” value is “attenuated”. Besides, in the series with Bcr-Abl [3], the “levels of tyrosine phosphorylated Bcr-Abl” value was “inhibited”. Besides, the p27 levels entry in the series with Bcr-Abl [3] is “induction”. In addition, the “apoptosis of BaF3/Bcr-Abl cells” value in the series on BaF3/Bcr-Abl cells is listed as “dose-dependent manner”. Besides, the “apoptosis of LAMA-84 cells” value with LAMA-84 cells was “dose-dependent manner”.

With `Cc1[nH]c2ccccc2c1CCNCc1ccc(/C=C/C(=O)NO)cc1` [Compound (V), N-hydroxy-3-[4-[[[2-(2-methyl-1H-indol-3-yl)-ethyl]-amino]methyl]phenyl]-2E-2-propenamide], the Bcr-Abl levels result in the series on Bcr-AblT315I (50 nM, 24 hours) is given as “lowered”; with Bcr-AblE255K (50 nM, 24 hours), “lowered”; in the series with Bcr-Abl [4] (50 nM, 24 hours) it was “lowered”. In the series on K562 cells, the “apoptosis of K562 cells” value is “dose-dependent manner”. Also, the “apoptosis of BaF3/Bcr-Abl T315I cells” value in the series on BaF3/Bcr-AblT315I cells (50 nM, 48 hours) is reported as “approximately 30%”; in the series with BaF3/Bcr-AblT315I cells (levels lower than 50 nM) it was “less effective”. Moreover, the “sensitivity of BaF3/Bcr-AblT315I cells to induced apoptosis” value in the series with BaF3/Bcr-AblT315I cells (agent alone) is given as “as sensitive as BaF3/Bcr-Abl cells”. For the same compound, the “loss of survival of NBMCs” value in the series on NBMCs (20 nM) was determined as 13.1%; in the series with NBMCs (50 nM), 15.9%. In addition, the “sensitivity of sample 7” value in [2] was “sensitive”. Also, the apoptosis of cells in [2] (50 nM alone) was found to be 42.0%. Further, the “loss of cell viability” value in [2] (samples 1 to 7, agent alone) was “dose dependent”. Also, in series [2] (samples 8, 9, and 10 with Bcr-AblT315I mutation, alone, 48 hours, dose-dependent), the cell viability entry is reported as “markedly inhibited”. Moreover, in the series with LAMA-84 cells, the “apoptosis of LAMA-84 cells” value was “dose-dependent manner”.
